Measurements as given in patent US12600709B2, “Nonpeptide somatostatin type 5 receptor agonists and uses thereof” (Crinetics Pharmaceuticals, Inc., priority 2019, dated 2026).
Like-named read-outs stand apart in the source and are kept apart here.

Legend:
[1] = biological target: T1, human somatostatin receptor subtype 2 (Homo sapiens, UniProt P30874); assay: cAMP assay for SST2R (inhibition of cAMP in CHO-K1 cells); format: cell-based; settings: Table B; inhibition of cAMP via human SST2 receptor; read-out: SST2 potency
T1 construct: expressed in transfected cells
T1 sequence (P30874 whole entry): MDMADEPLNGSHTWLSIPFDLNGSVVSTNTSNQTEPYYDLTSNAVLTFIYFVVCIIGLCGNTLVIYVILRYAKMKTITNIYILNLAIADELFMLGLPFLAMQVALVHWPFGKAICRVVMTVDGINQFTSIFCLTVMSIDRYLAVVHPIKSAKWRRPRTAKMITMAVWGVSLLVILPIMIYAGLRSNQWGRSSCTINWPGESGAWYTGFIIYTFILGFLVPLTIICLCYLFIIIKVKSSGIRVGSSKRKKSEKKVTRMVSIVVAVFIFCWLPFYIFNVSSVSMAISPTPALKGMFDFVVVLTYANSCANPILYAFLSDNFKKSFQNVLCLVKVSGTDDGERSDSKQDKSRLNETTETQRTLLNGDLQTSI
Procedure, shortened: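 CHO-K1 cells stably expressing human SSTR2, plated 4 days prior, treated 20 min at 37° C with 1.6 μM NKH477 plus compound dilutions in HBSS/HEPES pH 7.4/0.1% BSA/0.2 mM IBMX. Lysate cAMP measured by HTRF against standard curve; EC50 from concentration-response.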

[2] = biological target: T2, human somatostatin receptor subtype 5 (Homo sapiens, UniProt P35346); assay: cAMP assay for SST5R (inhibition of cAMP in CHO-K1 cells); format: cell-based; settings: for EC50: inhibition of cAMP via human SST5 receptor, read-out: SST5 potency; for Fold selectivity for SST5 vs SST2: class symbols, SST5 receptor over SST2 receptor
T2 construct: expressed in transfected cells
T2 sequence (P35346 whole entry): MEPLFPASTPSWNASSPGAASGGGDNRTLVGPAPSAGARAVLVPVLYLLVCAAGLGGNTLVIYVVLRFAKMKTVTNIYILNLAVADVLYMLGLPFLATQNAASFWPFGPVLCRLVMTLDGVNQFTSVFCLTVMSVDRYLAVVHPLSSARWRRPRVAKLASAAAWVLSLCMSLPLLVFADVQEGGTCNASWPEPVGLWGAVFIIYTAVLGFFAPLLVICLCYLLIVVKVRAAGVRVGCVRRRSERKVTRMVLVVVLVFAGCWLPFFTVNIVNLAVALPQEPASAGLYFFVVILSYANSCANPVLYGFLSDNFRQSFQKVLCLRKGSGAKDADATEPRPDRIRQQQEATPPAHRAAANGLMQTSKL
Procedure, shortened: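 CHO-K1 cells stably expressing human SSTR5 were treated 20 min at 37 °C with compounds plus 1.6 μM NKH477 in HBSS, 0.5 mM HEPES pH 7.4, 0.1% BSA, 0.2 mM IBMX. Lysate cAMP measured by HTRF against a standard curve; EC50 from cAMP-versus-concentration plots.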

## CCC1(NC(=O)c2cncc(-c3cc(C)cc(F)c3)c2N2CC[C@](C)(N)C2)CCC1 [1-19, 4-[(3S)-3-amino-3-methylpyrrolidin-1-yl]-N-(1-ethylcyclobutyl)-5-(3-fluoro-5-methylphenyl)pyridine-3-carboxamide]
[1]
  EC50: 0.1 to 1 µM
[2]; Table A
  EC50: < 0.01 µM
[2]; Table B
  Fold selectivity for SST5 vs SST2: ++ (++=100 to 499)
  EC50: < 0.01 µM

## Cc1cc(C)cc(-c2cncc(C(=O)Nc3cc(F)cc(Cl)c3)c2N2CC[C@H](N)C2)c1 [1-3, 4-[(3 S)-3-aminopyrrolidin-1-yl]-N-(3-chloro-5-fluorophenyl)-5-(3,5-dimethylphenyl)pyridine-3-carboxamide]
[1]
  EC50: 0.1 to 1 µM
[2]; Table A
  EC50: < 0.01 µM
[2]; Table B
  Fold selectivity for SST5 vs SST2: + (+=10 to 99)
  EC50: < 0.01 µM

## N#Cc1ncc(C(=O)NC2CC(F)(F)C2)c(N2CC[C@H](N)C2)c1-c1cc(F)cc(F)c1 [1-68, 4-[(3S)-3-aminopyrrolidin-1-yl]-6-cyano-N-(3,3-difluorocyclobutyl)-5-(3,5-difluorophenyl)pyridine-3-carboxamide]
[1]
  EC50: > 1 µM
[2]; Table A
  EC50: < 0.01 µM
[2]; Table B
  Fold selectivity for SST5 vs SST2: +++ (+++=>500)
  EC50: < 0.01 µM

## Cc1cc(C)cc(-c2cncc(C(=O)NC3CCCC(C)(C)C3)c2N2CC[C@](C)(N)C2)c1 (stereo partly drawn) [1-11, 4-[(3S)-3-amino-3-methylpyrrolidin-1-yl]-N-(3,3-dimethylcyclohexyl)-5-(3,5-dimethylphenyl)pyridine-3-carboxamide]
[1]
  EC50: > 1 µM
[2]; Table A
  EC50: < 0.01 µM
[2]; Table B
  Fold selectivity for SST5 vs SST2: +++ (+++=>500)
  EC50: < 0.01 µM

## COc1ncc(C(=O)N[C@@H](C)C(F)(F)F)c(N2CC[C@](C)(N)C2)c1-c1ccc(F)c(F)c1 [1-259, 4-[(3S)-3-amino-3-methylpyrrolidin-1-yl]-5-(3,4-difluorophenyl)-6-methoxy-N-[(2S)-1,1,1-trifluoropropan-2-yl]pyridine-3-carboxamide]
[1]
  EC50: 0.01 to 0.1 µM
[2]; Table A
  EC50: < 0.01 µM
[2]; Table B
  Fold selectivity for SST5 vs SST2: +++ (+++=>500)
  EC50: < 0.01 µM

## Cc1ncc(C(=O)NC2CCC(F)(F)CC2)c(N2CC[C@](C)(N)C2)c1-c1cc(F)cc(OC(F)F)c1 [1-174, 4-[(3S)-3-amino-3-methylpyrrolidin-1-yl]-N-(4,4-difluorocyclohexyl)-5-[3-(difluoromethoxy)-5-fluorophenyl]-6-methylpyridine-3-carboxamide]
[1]
  EC50: 0.1 to 1 µM
[2]; Table A
  EC50: < 0.01 µM
[2]; Table B
  Fold selectivity for SST5 vs SST2: +++ (+++=>500)
  EC50: < 0.01 µM

## C[C@H](NC(=O)c1cnc(OCC2CC2)c(-c2cc(F)cc(F)c2)c1N1CC[C@](C)(N)C1)C1CC1 [1-178, 4-[(3S)-3-amino-3-methylpyrrolidin-1-yl]-N-[(1S)-1-cyclopropylethyl]-6-(cyclopropylmethoxy)-5-(3,5-difluorophenyl)pyridine-3-carboxamide]
[1]
  EC50: 0.01 to 0.1 µM
[2]; Table A
  EC50: < 0.01 µM
[2]; Table B
  Fold selectivity for SST5 vs SST2: +++ (+++=>500)
  EC50: < 0.01 µM

## N#Cc1ncc(C(=O)NC2CCCCC2)c(N2CC[C@H](N)C2)c1-c1cc(F)cc(F)c1 [1-81, 4-[(3S)-3-aminopyrrolidin-1-yl]-6-cyano-N-cyclohexyl-5-(3,5-difluorophenyl)pyridine-3-carboxamide]
[1]
  EC50: 0.1 to 1 µM
[2]; Table A
  EC50: < 0.01 µM
[2]; Table B
  Fold selectivity for SST5 vs SST2: +++ (+++=>500)
  EC50: < 0.01 µM

## C[C@H](NC(=O)c1cncc(-c2ccc3cnn(C)c3c2)c1N1CC[C@](C)(N)C1)C1CC1 [1-161, 4-[(3S)-3-amino-3-methylpyrrolidin-1-yl]-N-[(1S)-1-cyclopropylethyl]-5-(1-methyl-1H-indazol-6-yl)pyridine-3-carboxamide]
[1]
  EC50: > 1 µM
[2]; Table A
  EC50: < 0.01 µM
[2]; Table B
  Fold selectivity for SST5 vs SST2: ++ (++=100 to 499)
  EC50: < 0.01 µM

## CCC(CC)NC(=O)c1cnc(C#N)c(-c2cc(F)cc(F)c2)c1N1CC[C@](C)(N)C1 [1-76, 4-[(3S)-3-amino-3-methylpyrrolidin-1-yl]-6-cyano-5-(3,5-difluorophenyl)-N-(pentan-3-yl)pyridine-3-carboxamide]
[1]
  EC50: > 1 µM
[2]; Table A
  EC50: < 0.01 µM
[2]; Table B
  Fold selectivity for SST5 vs SST2: +++ (+++=>500)
  EC50: < 0.01 µM
